{
  "source": "patent US20170296568A1",
  "about": "“SIRTUIN GENE POTENTIATOR, AND PHARMACEUTICAL PRODUCT, COSMETIC PRODUCT, AND FOOD PRODUCT USING SAME” (MORISHITA JINTAN CO., LTD., priority 2012, published 2017)",
  "data": [
    {"system": "hSIRT1 promoter", "assay": "Screening for SIRT1 enhancing polyphenol or terpenoid: hSIRT1 promoter activity (EGFP fluorescence) in Caco-2-hSIRT1p-EGFP cells", "type": "cell-based, human", "details": "10 μM, 2 days after addition, relative ratio to control (PBS), FIG. 1", "description": "First, the promoter region (−1593 to −1 bp) of hSIRT1 (human SIRT1) was acquired using the LA-PCR method using, as a template, a human genome DNA extracted from TIG-1 cells (obtained from Institute of Development, Aging and Cancer, Tohoku University), with primers synthesized based on reported information of the hSIRT1 genomic sequence so as to synthesize primers having added AseI and NheI recognition sequences at their respective ends (hSIRT1p-AseI (SEQ ID NO: 1) and hSIRT1p-NheI (SEQ ID NO: 2)). The PCR reaction condition was at 94° C. for 1 minute, followed by at 98° C. for 20 seconds; and at 68° C. for 2 minutes, 34 cycles; and then at 72° C. for 10 minutes for extension reaction. LA-Taq from Takara Shuzo Co., Ltd. was used as the TaqDNApolymerase. The primers were synthesized by Nippon EGT based on our request.\nThe hSIRT1 promoter fragment obtained by the LA-PCR was subjected to TA cloning using a pGEM-T Easy vector (manufactured by Promega KK). Furthermore, the base sequence thereof was confirmed by sequencing. The hSIRT1 promoter fragment, inserted into the pGEM-T Easy vector, was cut out by digestion with the restriction enzymes AseI and NheI, and the CMV promoter of a pEGFP-C3 (manufactured by Takara Bio Inc.) was removed by digestion with AseI and NheI in a similar manner, and the hSIRT1 promoter fragment was inserted into that removed site, so that phSIRT1p-EGFP was obtained.\nTransfection was performed using a LIPOFECT AMINE 2000 REAGENT (manufactured by Life Technologies) according to its protocol. On the day before the transfection, Caco-2 cells (human colonic cancer-derived cells obtained from Riken BioResource Center) were plated at 1.0×10^6 in a 10-mL dish. On the day of the transfection, phSIRT1p-EGFP (10 μg) was diluted in a serum-free OPTI-MEM medium to a volume of 750 μL, after which 15 μL of LIPOFECT AMINE Reagent was diluted in a serum-free OPTI-MEM medium to […], and they were incubated at room temperature for 5 minutes. The transfection using the LIPOFECT AMINE Reagent was performed in the absence of serum, during which the culture medium of the Caco-2 cells plated on the previous day was removed, and was replaced by 5 mL of serum-free OPTI-MEM medium. After 30 minutes of this, 1.5 mL of DNA-LIPOFECT AMINE 2000 mixture was added to each 10-mL dish. After the addition, the dish was gently shaken to mix the DNA-LIPOFECT AMINE and the OPTI-MEM. After the culture for 3 hours, the DNA-LIPOFECT AMINE mixture solution was removed, and the medium was replaced by a serum-containing culture medium. Subsequently, culture was performed under the environment at 5% CO2/95% air and 37° C. for 21 hours, and the culture medium was replaced by a new one.\nSince phSIRT1p-EGFP is resistant to the drug G418, the drug G418 was added to the transfected cells to 70 μg/mL to subject them to the drug selection for a week. The culture medium was replaced by a new one every three days, and G418 was added every time at the same concentration. Accordingly, Caco-2-hSIRT1p-EGFP cells were obtained.\nCaco-2-hSIRT1p-EGFP cells were plated at 0.6×10^4 cells/well in a 96-well plate. On the next day, 10 μM polyphenol or terpenoid, or control (PBS) was added to each well. At 2 days after the addition, the culture solution was aspirated, after which 100 μL of 4% paraformaldehyde was added to each well, and the plate was allowed to stand at room temperature for 10 minutes. After the plate was allowed to stand for 10 minutes, 4% paraformaldehyde was aspirated, 100 μL of Cellstain (registered trademark)-Hoechst 33342 solution (Dojindo) diluted 1/500 with PBS was added to each well, and the plate was allowed to stand at room temperature in the dark for 15 minutes and the solution was then aspirated. Then, 100 μL of PBS was added to each well, and the fluorescence intensity was measured using an IN Cell Analyzer 1000 (GE Healthcare, Amersham Place, UK). The promoter activity was represented by a relative ratio to the activity of the control.", "values": [
      {"smiles": "O=C1O[C@H]2[C@@H]3OC(=O)c4cc(O)c(O)c(O)c4-c4c(O)c(O)c5oc(=O)c6c(c(O)c(O)c7oc(=O)c4c5c76)-c4c(cc(O)c(O)c4O)C(=O)OC[C@H]3OC(O)[C@@H]2OC(=O)c2cc(O)c(O)c(O)c2-c2c1cc(O)c(O)c2O", "note": "(mixture of isomers) [punicalagin]", "relative hSIRT1 promoter activity": "particularly strong hSIRT1 promoter enhancing activity"},
      {"smiles": "O=C1OC[C@H]2OC(O)[C@H](O)[C@@H](O)[C@@H]2OC(=O)c2cc(O)c(O)c(O)c2-c2c(O)c(O)c3oc(=O)c4c(c(O)c(O)c5oc(=O)c2c3c54)-c2c1cc(O)c(O)c2O", "note": "(mixture of isomers) [punicalin]", "relative hSIRT1 promoter activity": "particularly strong hSIRT1 promoter enhancing activity"},
      {"smiles": "O=c1c(O)c(-c2ccc(O)c(O)c2)oc2cc(O)ccc12", "note": "[fisetin]", "relative hSIRT1 promoter activity": "particularly strong hSIRT1 promoter enhancing activity"},
      {"smiles": "C[C@@]12C=Cc3occc3[C@H]1CC[C@@]13C[C@@H](CC[C@H]12)[C@@](O)(CO)C3", "note": "[kahweol]", "relative hSIRT1 promoter activity": "particularly strong hSIRT1 promoter enhancing activity"},
      {"smiles": "O=c1oc2cc(O)ccc2c2ccc(O)cc12", "note": "[urolithin A]", "relative hSIRT1 promoter activity": "particularly strong hSIRT1 promoter enhancing activity"}
    ]}
  ]
}
